The text below walks through data of US11180474B2 (BRISTOL-MYERS SQUIBB COMPANY, priority 2016, dated 2021).

What is called IC50 is the point on the concentration scale where inhibition reaches its midpoint. Higher therefore signals a need for much substance.

In the experiment the target is T1, human TLR7 (Homo sapiens, UniProt Q9NYK1).
T1 construct: host or cells: HEK-Blue cells
T1 sequence (Q9NYK1 27-1049): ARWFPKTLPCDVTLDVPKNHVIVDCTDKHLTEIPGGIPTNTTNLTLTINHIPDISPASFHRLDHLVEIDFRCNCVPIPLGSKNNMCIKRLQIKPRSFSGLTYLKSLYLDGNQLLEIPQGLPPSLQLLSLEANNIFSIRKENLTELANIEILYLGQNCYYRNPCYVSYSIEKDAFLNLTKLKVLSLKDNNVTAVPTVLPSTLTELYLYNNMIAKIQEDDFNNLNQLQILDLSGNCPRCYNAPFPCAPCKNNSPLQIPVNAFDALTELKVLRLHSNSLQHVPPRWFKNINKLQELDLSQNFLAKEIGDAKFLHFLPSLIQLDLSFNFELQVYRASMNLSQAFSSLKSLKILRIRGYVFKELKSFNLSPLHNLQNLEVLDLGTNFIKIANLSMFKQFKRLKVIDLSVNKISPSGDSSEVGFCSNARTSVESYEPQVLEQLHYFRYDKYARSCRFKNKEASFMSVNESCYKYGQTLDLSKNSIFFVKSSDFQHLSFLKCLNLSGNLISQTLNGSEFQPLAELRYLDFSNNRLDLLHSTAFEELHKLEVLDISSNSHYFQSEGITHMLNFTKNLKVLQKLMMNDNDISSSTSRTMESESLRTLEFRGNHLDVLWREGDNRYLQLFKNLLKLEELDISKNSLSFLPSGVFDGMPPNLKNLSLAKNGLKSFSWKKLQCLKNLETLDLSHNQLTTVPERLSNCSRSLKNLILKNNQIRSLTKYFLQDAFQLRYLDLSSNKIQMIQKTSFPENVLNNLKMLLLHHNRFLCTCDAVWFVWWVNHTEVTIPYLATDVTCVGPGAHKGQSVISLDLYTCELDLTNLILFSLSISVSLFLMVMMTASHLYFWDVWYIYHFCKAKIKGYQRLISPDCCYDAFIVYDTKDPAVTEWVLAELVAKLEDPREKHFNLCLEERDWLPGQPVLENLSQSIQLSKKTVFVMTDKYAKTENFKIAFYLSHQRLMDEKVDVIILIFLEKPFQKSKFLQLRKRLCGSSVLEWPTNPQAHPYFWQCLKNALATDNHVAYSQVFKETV
Nature of the experiment: TLR7 inhibition reporter assay (HEK-Blue cells, SEAP reporter, gardiquimod stimulation). The note with it: HEK-Blue cells overexpressing human TLR7, gardiquimod 7.5 μM. The format is cell-based. The gist of the method:
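Dose-response testing from 0.05 nM to 50 μM final was done on reporter cells for 22 hours at 37° C. Secreted SEAP was then detected, and inhibition was calculated as percent reduction of the agonist-plus-DMSO signal compared with wells given a known inhibitor.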
Regarding `CCc1c(-c2ccc(OC)c(OC)c2)[nH]c2ccc(C3CCN(C4CCN(Cc5ccc(-c6ccccc6)s5)CC4)CC3)cc12` [Example 141, 2-(3,4-dimethoxyphenyl)-3-ethyl-5-(1′-((5-phenylthiophen-2-yl)methyl)-[1,4′-bipiperidin]-4-yl)-1H-indole], half-maximal inhibition (IC50) was put at 3740 nM.
Under `CCc1c(-c2ccc(OC)c(OC)c2)[nH]c2ccc(C3CCN(C4CCN(Cc5ccsc5)CC4)CC3)cc12` [Example 142, 2-(3,4-dimethoxyphenyl)-3-ethyl-5-(1′-(thiophen-3-ylmethyl)-[1,4′-bipiperidin]-4-yl)-1H-indole] stands 898 nM; under `CCc1c(-c2ccc(OC)c(OC)c2)[nH]c2ccc(C3CCN(C4CCN(Cc5ccc(-c6ccccc6)o5)CC4)CC3)cc12` [Example 143, 2-(3,4-dimethoxyphenyl)-3-ethyl-5-(1′-((5-phenylfuran-2-yl)methyl)-[1,4′-bipiperidin]-4-yl)-1H-indole], 1260 nM; under `CCc1c(-c2ccc(OC)c(OC)c2)[nH]c2ccc(C3CCN(C4CCN(Cc5cc(C)n(C)n5)CC4)CC3)cc12` [Example 144, 2-(3,4-dimethoxyphenyl)-5-(1′-((1,5-dimethyl-1H-pyrazol-3-yl)methyl)-[1,4′-bipiperidin]-4-yl)-3-ethyl-1H-indole], 473 nM.
Under `CCc1c(-c2ccc(OC)c(OC)c2)[nH]c2ccc(C3CCN(C4CCN(Cc5ccccc5)CC4)CC3)cc12` [Example 147, 5-(1′-benzyl-[1,4′-bipiperidin]-4-yl)-2-(3,4-dimethoxyphenyl)-3-ethyl-1H-indole] stands 292 nM; under `CCc1c(-c2ccc(OC)c(OC)c2)[nH]c2ccc(C3CCN(C4CCN(CC)CC4)CC3)cc12` [Example 149, 2-(3,4-dimethoxyphenyl)-3-ethyl-5-(1′-ethyl-[1,4′-bipiperidin]-4-yl)-1H-indole], 345 nM.
As for `CCc1c(-c2ccc(OC)c(OC)c2)[nH]c2ccc(C3CCN(C4CCN(C)CC4)CC3)cc12` [Example 150, 2-(3,4-dimethoxyphenyl)-3-ethyl-5-(1′-methyl-[1,4′-bipiperidin]-4-yl)-1H-indole], the figure is 7980 nM; as for `CCc1c(-c2ccc(OC)c(OC)c2)[nH]c2ccc(C3CCN(C4CCN(C(C)C)CC4)CC3)cc12` [Example 151, 2-(3,4-dimethoxyphenyl)-3-ethyl-5-(1′-isopropyl-[1,4′-bipiperidin]-4-yl)-1H-indole], 507 nM; as for `CCc1c(-c2ccc(OC)c(OC)c2)[nH]c2ccc(C3CCN(C4CCN(C5CCCC5)CC4)CC3)cc12` [Example 152, 5-(1′-cyclopentyl-[1,4′-bipiperidin]-4-yl)-2-(3,4-dimethoxyphenyl)-3-ethyl-1H-indole], 590 nM.
In turn, `CCc1c(-c2ccc(OC)c(OC)c2)[nH]c2ccc(C3CCN(C4CCN(Cc5cnc(C)[nH]5)CC4)CC3)cc12` [Example 153, 2-(3,4-dimethoxyphenyl)-3-ethyl-5-(1′-((2-methyl-1H-imidazol-5-yl)methyl)-[1,4′-bipiperidin]-4-yl)-1H-indole] gave an IC50 of 1470 nM.
The compound `CCc1c(-c2ccc(OC)c(OC)c2)[nH]c2ccc(C3CCN(CCNC)CC3)cc12` [Example 155, 2-(4-(2-(3,4-dimethoxyphenyl)-3-ethyl-1H-indol-5-yl)piperidin-1-yl)-N-methylethanamine di-trifluoroacetic acid] displayed an IC50 of 134 nM.
As for `CCc1c(-c2ccc(OC)c(OC)c2)[nH]c2ccc(C3CCN(C(=O)CNCCO)CC3)cc12` [Example 159, 1-(4-(2-(3,4-dimethoxyphenyl)-3-ethyl-1H-indol-5-yl)piperidin-1-yl)-2-((2-hydroxyethyl)amino) ethan-1-one], the figure is 42 nM.
Under `CCc1c(-c2ccc(OC)c(OC)c2)[nH]c2ccc(C3CCN(C(=O)CNCC#N)CC3)cc12` [Example 161, 2-((2-(4-(2-(3,4-dimethoxyphenyl)-3-ethyl-1H-indol-5-yl)piperidin-1-yl)-2-oxoethyl)amino)acetonitrile] stands 1210 nM.
`CCc1c(-c2ccc(OC)c(OC)c2)[nH]c2ccc(C3CCN(C(=O)CNC4CCC(N(C)C)CC4)CC3)cc12` (stereo not drawn) [Example 162, 1-(4-(2-(3,4-dimethoxyphenyl)-3-ethyl-1H-indol-5-yl)piperidin-1-yl)-2-((4-(dimethylamino)cyclohexyl)amino)ethan-1-one] gave an IC50 of 88 nM.
The compound `CCc1c(-c2ccc(OC)c(OC)c2)[nH]c2ccc(C3CCN(C(=O)CN4CCCC(C(=O)N(CC)CC)C4)CC3)cc12` (stereo not drawn) [Example 168, 1-(2-(4-(2-(3,4-dimethoxyphenyl)-3-ethyl-1H-indol-5-yl)piperidin-1-yl)-2-oxoethyl)-N,N-diethylpiperidine-3-carboxamide] had an IC50 of 142 nM.
As for `CCc1c(-c2ccc(OC)c(OC)c2)[nH]c2ccc(C3CCN(C(=O)CN4CC[C@@H](O)C4)CC3)cc12` [Example 173, (R)-1-(4-(2-(3,4-dimethoxyphenyl)-3-ethyl-1H-indol-5-yl)piperidin-1-yl)-2-(3-hydroxypyrrolidin-1-yl)ethan-1-one], the figure is 43 nM.
For `CCc1c(-c2ccc(OC)c(OC)c2)[nH]c2ccc(C3CCN(C(=O)C(C)(C)OC(C)=O)CC3)cc12` [Example 175, 1-(4-(2-(3,4-dimethoxyphenyl)-3-ethyl-1H-indol-5-yl)piperidin-1-yl)-2-methyl-1-oxopropan-2-yl acetate], the concentration for half-maximal inhibition (IC50) worked out at 1690 nM.
Under `CCc1c(-c2ccc(OC)c(OC)c2)[nH]c2ccc(C3CCN(C(=O)CNc4nccs4)CC3)cc12` [Example 177, 1-(4-(2-(3,4-dimethoxyphenyl)-3-ethyl-1H-indol-5-yl)piperidin-1-yl)-2-(thiazol-2-ylamino)ethanone] stands 121 nM; under `CCc1c(-c2ccc(OC)c(OC)c2)[nH]c2ccc(C3CCN(CC(C)C(F)(F)F)CC3)cc12` (stereo not drawn) [Example 180, 2-(3,4-dimethoxyphenyl)-3-ethyl-5-(1-(3,3,3-trifluoro-2-methylpropyl)piperidin-4-yl)-1H-indole], at least 50000 nM.
Under `CCc1c(-c2ccc(OC)c(OC)c2)[nH]c2ccc(C3CCN(C(=O)CN(C)C)CC3)cc12` [Example 181, 1-(4-(2-(3,4-dimethoxyphenyl)-3-ethyl-1H-indol-5-yl)piperidin-1-yl)-2-(dimethylamino) ethanone] stands 52 nM; under `CCc1c(-c2ccc(OC)c(OC)c2)[nH]c2ccc(C3CCN(C(=O)c4ccncc4)CC3)cc12` [Example 183, (4-(2-(3,4-dimethoxyphenyl)-3-ethyl-1H-indol-5-yl)piperidin-1-yl)(pyridin-4-yl) methanone], 533 nM; under `CCc1c(-c2ccc(OC)c(OC)c2)[nH]c2ccc(C3CCN(C(=O)C4CCCNC4)CC3)cc12` (stereo not drawn) [Example 184, (4-(2-(3,4-dimethoxyphenyl)-3-ethyl-1H-indol-5-yl)piperidin-1-yl)(piperidin-3-yl)methanone], 191 nM.
As to `CCc1c(-c2ccc(OC)c(OC)c2)[nH]c2ccc(C3CCN(C(C)=O)CC3)cc12` [Example 185, 1-(4-(2-(3,4-dimethoxyphenyl)-3-ethyl-1H-indol-5-yl)piperidin-1-yl)ethan-1-one], inhibition was half-maximal at 273 nM (IC50).
As for `CCc1c(-c2ccc(OC)c(OC)c2)[nH]c2ccc(C3CCN(C(=O)C4CCNCC4)CC3)cc12` [Example 186, (4-(2-(3,4-dimethoxyphenyl)-3-ethyl-1H-indol-5-yl)piperidin-1-yl)(piperidin-4-yl) methanone], the figure is 96 nM; as for `CCc1c(-c2ccc(OC)c(OC)c2)[nH]c2ccc(C3CCN(C(=O)C4(C)CCNCC4)CC3)cc12` [Example 187, (4-(2-(3,4-dimethoxyphenyl)-3-ethyl-1H-indol-5-yl)piperidin-1-yl)(4-methylpiperidin-4-yl)methanone], 167 nM.
As for `CCc1c(-c2ccc(OC)c(OC)c2)[nH]c2cc(C)c(C3CCN(CCNC)CC3)cc12` [Example 188, 2-(4-(2-(3,4-dimethoxyphenyl)-3-ethyl-6-methyl-1H-indol-5-yl)piperidin-1-yl)-N-methylethanamine-di-trifluoroacetic acid], the figure is 70 nM; as for `CCc1c(-c2ccc(OC)c(OC)c2)[nH]c2c(F)cc(C3CCNCC3)cc12` [Example 189, 2-(3,4-dimethoxyphenyl)-3-ethyl-7-fluoro-5-(piperidin-4-yl)-1H-indole], 430 nM.
